Data taken from patent US11318137B2, “Quinazoline compounds as modulators of Ras signaling” (VANDERBILT UNIVERSITY, priority 2017, dated 2022).

Assays:
[1] = target: T1, SOS-mediated nucleotide exchange on Ras (Homo sapiens, UniProt Q07889); assay: SOS-mediated nucleotide exchange on Ras (BODIPY-GDP fluorescence); type: biochemical; details: Ras loaded with BODIPY-GDP, GTP and SOS added; EC50 from derived exchange rates
T1 sequence (Q07889 1-1333): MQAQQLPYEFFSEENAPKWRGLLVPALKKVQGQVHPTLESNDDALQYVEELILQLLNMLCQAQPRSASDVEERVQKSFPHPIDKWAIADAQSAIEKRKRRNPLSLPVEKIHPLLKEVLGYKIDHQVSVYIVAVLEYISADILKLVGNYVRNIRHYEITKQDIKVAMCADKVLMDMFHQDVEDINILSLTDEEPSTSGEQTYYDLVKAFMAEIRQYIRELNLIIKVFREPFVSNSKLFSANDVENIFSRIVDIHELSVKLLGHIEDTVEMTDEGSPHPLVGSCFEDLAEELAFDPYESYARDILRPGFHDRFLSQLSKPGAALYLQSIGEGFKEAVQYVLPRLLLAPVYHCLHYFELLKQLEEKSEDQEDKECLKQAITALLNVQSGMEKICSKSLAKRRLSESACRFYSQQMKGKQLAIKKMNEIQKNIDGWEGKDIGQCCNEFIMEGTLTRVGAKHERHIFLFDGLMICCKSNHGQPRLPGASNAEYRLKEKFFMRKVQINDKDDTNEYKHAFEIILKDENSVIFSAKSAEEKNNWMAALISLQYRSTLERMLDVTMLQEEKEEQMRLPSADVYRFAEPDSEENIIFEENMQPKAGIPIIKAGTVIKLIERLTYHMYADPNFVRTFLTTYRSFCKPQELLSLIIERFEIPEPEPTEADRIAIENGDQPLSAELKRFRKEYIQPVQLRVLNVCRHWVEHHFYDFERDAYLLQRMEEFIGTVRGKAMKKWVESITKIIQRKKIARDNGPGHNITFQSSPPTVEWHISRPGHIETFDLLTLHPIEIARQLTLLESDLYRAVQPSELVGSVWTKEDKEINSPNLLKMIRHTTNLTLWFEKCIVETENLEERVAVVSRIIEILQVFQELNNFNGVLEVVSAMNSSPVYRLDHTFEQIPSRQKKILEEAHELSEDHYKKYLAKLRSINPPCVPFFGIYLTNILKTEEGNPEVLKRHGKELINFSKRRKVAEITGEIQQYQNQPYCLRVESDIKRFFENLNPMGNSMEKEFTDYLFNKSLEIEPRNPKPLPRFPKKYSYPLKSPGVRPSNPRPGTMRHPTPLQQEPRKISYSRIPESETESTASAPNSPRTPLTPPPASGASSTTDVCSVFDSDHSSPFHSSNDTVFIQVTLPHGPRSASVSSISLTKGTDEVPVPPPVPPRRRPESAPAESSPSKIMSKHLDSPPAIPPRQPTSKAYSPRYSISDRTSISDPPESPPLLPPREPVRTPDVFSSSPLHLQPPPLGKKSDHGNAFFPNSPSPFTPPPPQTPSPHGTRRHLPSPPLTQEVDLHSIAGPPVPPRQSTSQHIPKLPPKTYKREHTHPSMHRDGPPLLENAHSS
In short: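 Compound, then GTP and SOS, were added to buffered Ras preloaded with BODIPY-GDP, and the fluorescence change from labeled GDP being exchanged for GTP was followed over time. Rates came from single-exponential fits, and EC50 from a four-parameter fit of mean rate against compound concentration.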

[2] = target: T2, Son of Sevenless (SOS) (Homo sapiens, UniProt Q07889); assay: Binding to SOS, fluorescence polarization anisotropy (FPA) displacement of FITC-conjugated probe; details: binding affinity calculated from IC50 of FITC-probe displacement, read-out: Binding affinities (binding affinity to SOS)
T2 sequence (Q07889 564-1049 limits assumed): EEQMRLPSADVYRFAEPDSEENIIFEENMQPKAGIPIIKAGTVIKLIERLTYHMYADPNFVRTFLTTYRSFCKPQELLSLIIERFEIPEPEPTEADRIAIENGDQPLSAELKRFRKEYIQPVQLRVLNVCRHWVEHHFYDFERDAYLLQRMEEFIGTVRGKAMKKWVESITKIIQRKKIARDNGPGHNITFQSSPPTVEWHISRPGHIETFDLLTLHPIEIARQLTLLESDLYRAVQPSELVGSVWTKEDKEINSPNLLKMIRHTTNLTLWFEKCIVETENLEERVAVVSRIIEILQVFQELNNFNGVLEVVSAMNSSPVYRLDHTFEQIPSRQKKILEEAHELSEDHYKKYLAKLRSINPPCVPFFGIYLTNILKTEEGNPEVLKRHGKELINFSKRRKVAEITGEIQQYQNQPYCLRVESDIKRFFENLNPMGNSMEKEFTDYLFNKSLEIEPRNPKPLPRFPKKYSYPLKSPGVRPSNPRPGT
In short: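 FITC-labelled probe incubated with SOS in buffer; displacement by test compound across a dose range read as fluorescence anisotropy change. IC50 from four-parameter variable-slope fit, binding affinity calculated from IC50.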

| Compound | EC50 [1] [µM] | Ki [2] [µM] |
| --- | --- | --- |
| C[C@@H](Nc1nc(Nc2ccc(F)c(Cl)c2)nc2c(C3=CCN(C)CC3)cccc12)C1CC1 [Example 120, (R)—N^2-(3-chloro-4-fluorophenyl)-N^4-(1-cyclopropylethyl)-8-(1-methyl-1,2,3,6-tetrahydropyridin-4-yl)quinazoline-2,4-diamine] | 5 to 30 | 1 to 5 |
| C[C@@H](Nc1nc(NCC2CCCCC2)nc2c(C3=CCN(C)CC3)cccc12)C1CC1 [Example 121, (R)—N^2-(cyclohexylmethyl)-N^4-(1-cyclopropylethyl)-8-(1-methyl-1,2,3,6-tetrahydropyridin-4-yl)quinazoline-2,4-diamine] | 1 to 5 | 1 to 5 |
| C[C@@H](Nc1nc(Nc2ccc(F)c(Cl)c2)nc2c(C3=CCOCC3)cccc12)C1CC1 [Example 122, (R)—N^2-(3-chloro-4-fluorophenyl)-N^4-(1-cyclopropylethyl)-8-(3,6-dihydro-2H-pyran-4-yl)quinazoline-2,4-diamine] | > 30 | > 5 |
| CCOCCc1cccc2c(N[C@H](C)C3CC3)nc(Nc3ccc(F)c(Cl)c3)nc12 [Example 123, (R)—N^2-(3-chloro-4-fluorophenyl)-N^4-(1-cyclopropylethyl)-8-(2-ethoxyethyl)quinazoline-2,4-diamine] | > 30 | > 5 |
| C[C@@H](Nc1nc(Nc2ccc(F)c(Cl)c2)nc2c(N3CCOCC3)cccc12)C1CC1 [Example 124, (R)—N^2-(3-chloro-4-fluorophenyl)-N^4-(1-cyclopropylethyl)-8-morpholinoquinazoline-2,4-diamine] | 5 to 30 | > 5 |
| CC[C@@H](Nc1nc(NCC2CCCCC2)nc2c(C3=CCNCC3)cccc12)C1CC1 [Example 125, (R)—N^2-(cyclohexylmethyl)-N^4-(1-cyclopropylpropyl)-8-(1,2,3,6-tetrahydropyridin-4-yl)quinazoline-2,4-diamine] | < 1 | < 1 |
| CC[C@@H](Nc1nc(Nc2cc(C)cc(F)c2)nc2c(C3=CCNCC3)cccc12)C1CC1 [Example 126, (R)—N^4-(1-cyclopropylpropyl)-N^2-(3-fluoro-5-methylphenyl)-8-(1,2,3,6-tetrahydropyridin-4-yl)quinazoline-2,4-diamine] | 1 to 5 | < 1 |
| CC[C@@H](Nc1nc(NCC2CCCCC2)nc2c(CCN)cccc12)C1CC1 [Example 127, (R)-8-(2-aminoethyl)-N^2-(cyclohexylmethyl)-N^4-(1-cyclopropylpropyl)quinazoline-2,4-diamine] | 1 to 5 | < 1 |
| CC[C@@H](Nc1nc(Nc2cc(C)cc(F)c2)nc2c(CCN)cccc12)C1CC1 [Example 128, (R)-8-(2-aminoethyl)-N^4-(1-cyclopropylpropyl)-N^2-(3-fluoro-5-methylphenyl)quinazoline-2,4-diamine] | 1 to 5 | 1 to 5 |

Results, then the molecule that gave them:

| EC50 [1] [µM] | Ki [2] [µM] | Compound |
| --- | --- | --- |
| 5 to 30 | > 5 | C[C@@H](Nc1nc(Nc2ccc(F)c(Cl)c2)nc2c(CN)cccc12)C(C)(C)C [Example 130, (R)-8-(aminomethyl)-N^2-(3-chloro-4-fluorophenyl)-N^4-(3,3-dimethylbutan-2-yl)quinazoline-2,4-diamine] |
| 5 to 30 | > 5 | Cc1cc(F)cc(Nc2nc(N[C@H](C)C(C)(C)C)c3cccc(CN)c3n2)c1 [Example 131, (R)-8-(aminomethyl)-N^4-(3,3-dimethylbutan-2-yl)-N^2-(3-fluoro-5-methylphenyl)quinazoline-2,4-diamine] |
| 5 to 30 | 1 to 5 | C[C@@H](Nc1nc(Nc2ccc(F)c(Cl)c2)nc2c(CN)cccc12)c1cccs1 [Example 132, (R)-8-(aminomethyl)-N^2-(3-chloro-4-fluorophenyl)-N^4-(1-(thiophen-2-yl)ethyl)quinazoline-2,4-diamine] |
| 5 to 30 | 1 to 5 | C[C@@H](Nc1nc(NCc2cccc(Cl)c2F)nc2c(C3=CCNCC3)cccc12)c1cccs1 [Example 133, (R)—N^2-(3-chloro-2-fluorobenzyl)-8-(1,2,3,6-tetrahydropyridin-4-yl)-N^4-(1-(thiophen-2-yl)ethyl)quinazoline-2,4-diamine] |
